Results on 21 molecules are retold here after patent US20240116910A1, “Heterocycles as WIP1 Inhibitors” (PMV Pharmaceuticals, Inc., priority 2022, published 2024).

pIC50: −log10 of the molar value.

Chain of recombinant His-tag Wip1(2-420) protein (amino acids #2-420) (O15297 2-420): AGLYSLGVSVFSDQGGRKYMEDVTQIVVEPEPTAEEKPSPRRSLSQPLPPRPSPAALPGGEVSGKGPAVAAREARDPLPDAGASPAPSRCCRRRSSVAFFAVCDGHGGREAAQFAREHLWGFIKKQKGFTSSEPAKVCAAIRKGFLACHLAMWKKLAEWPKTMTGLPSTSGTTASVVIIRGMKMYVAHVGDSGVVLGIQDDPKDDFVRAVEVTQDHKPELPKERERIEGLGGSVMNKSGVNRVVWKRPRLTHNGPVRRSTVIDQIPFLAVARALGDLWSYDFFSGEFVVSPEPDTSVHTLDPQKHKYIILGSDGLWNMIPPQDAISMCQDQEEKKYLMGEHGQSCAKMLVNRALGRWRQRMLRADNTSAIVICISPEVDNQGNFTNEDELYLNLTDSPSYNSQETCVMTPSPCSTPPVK

The experiment has as its target recombinant His-tag Wip1(2-420) protein (amino acids #2-420) (Homo sapiens (Human), UniProt O15297). Nature of the experiment: Wip1(2-420) phosphatase enzyme FDP assay. In kind it is biochemical. The settings on record: fluorescein diphosphate (FDP) substrate, RT 2 hours, fluorescence Ex485/Em535; read-out: WIP1 (Truncated 2-420) FDP Assay: IC50. As for the experimental part:
The Human Wip1 (2-420, aa 2-420) or Wip1 full length (aa 1-605) DNA sequence was codon optimized and synthesized by Genscript for insect cell expression. The open reading frame of Wip1(2-420) with a N-terminal-His6 affinity tag followed by a TEV cleavage site was subcloned sites into the pFastBac1 expression vector. The recombinant bacmid DNA was transfected in Sf9 insect cells for baculovirus production. After 72 hours infection, the Sf9 cells were harvested by centrifugation and resuspended in lysis buffer containing 50 mM Tris/HCl, pH 8.0, 500 mM NaCl, 20% glycerol, Benzonase 0.5% CHAPS and Roche cOmplete™ EDTA free protease inhibitors. Cells were disrupted with microfluidizer and the debris was removed by centrifugation at 185,000 g for 1 hour. The supernatant was subjected to HisTrap FF for affinity purification. Proteins were eluted with a linear gradient of 0-500 mM imidazole in HisTrap buffer containing 50 mM Tris/HCl, pH 8.0, 500 mM NaCl and 20% glycerol, 0.05% CHAPS. The eluted protein was dialyzed against dialysis buffer (20 mM MES, 100 mM NaCl, 20% glycerol, 0.5 mM TCEP, 0.05% CHAPS) followed purification via HiTrap SP HP column. The protein was eluted with a gradient of 100 mM-2 M NaCl in dialysis buffer. His6-[…] was finally concentrated and loaded onto a size-exclusion column (NiLoad 16/600 Superdex 200 pg, GE Healthcare) pre-equilibrated with 50 mM MOPS (pH 7.5), 200 mM NaCl, 20% glycerol, 1 mM TCEP, 0.05% CHAPS and 0.1 mM EGTA. The peak fractions containing purified Nis6-Wip1(2-420) were pooled and concentrated to 1.0 mg/mL and flash frozen at −80° C.
Wip1 Length and Wip1(2-420) Phosphatase Enzyme FDP Assays.
Test compounds (252 mM stock in DMSO) were diluted 3 folds in series in DMSO and 1.2 μl per well were added into 384-well polypropylene black plates (Nunc). Twelve μl per well of Assay Buffer (100 mM NaCl, 50 mM MOPS, pH 7.5, 0.8 mM CHAPS, 0.1 mM EGTA, 30 mM MgCl2, 0.3 mM TCEP, 0.2 mg/mL BSA) was added followed by […] per well of 50.4 nM recombinant His-tag Wip1 full length protein (amino acids #1-605) or recombinant His-tag Wip1(2-420) protein (amino acids #2-420) in Assay Buffer and the plate was incubated at RT (22° C.) for 5 min. Ten mM of fluorescein diphosphate (FDP) in DMSO was diluted to […] in Assay Buffer and […] per well was added to the plate and incubated at RT (22° C.) for 2 hours. […] per well of 64.1 mM EDTA in water were added to stop the enzyme reaction. The plate was centrifuged at 1,200 rpm (Eppendorf 5810R Plate centrifuge) for 1 minute and fluorescence intensity (Ex485/Em535) was measured on Perkin Elmer Victor Reader. EC50 values were calculated using either Prism (GraphPad) or ActivityBase software (IDBS), The IC50 results are provided in Table M.
Consider `Cc1ncc(Cl)cc1N[C@@H](C)c1ccc(C(=O)N[C@@H](CC2CCCC2)C(=O)NC2CCC2)s1` [Compound 87, (2S)-2-({5-[(1S)-1-[(5-chloro-2-methylpyridin-3-yl)amino]ethyl]thiophen-2-yl}formamido)-N-cyclobutyl-3-cyclopentylpropanamide], for which the pIC50 is 8.30.
Turning to `COC[C@@H](Nc1cc(Cl)cnc1C)c1ccc(C(=O)N[C@@H](CC2CCCC2)C(=O)NC2CC2)s1` [Compound 158, (2S)-2-({5-[(1R)-1-[(5-chloro-2-methylpyridin-3-yl)amino]-2-methoxyethyl]thiophen-2-yl}formamido)-3-cyclopentyl-N-cyclopropylpropanamide], the pIC50 was 6.00.
Then `Cc1ncc(Cl)cc1N[C@@H](C)c1ccc(C(=O)N[C@@H](CC2CCC3CC32)C(=O)NC2CC2)s1` (stereo in doubt) [Compound 273, (2S)-3-[(2S)-bicyclo[3.1.0]hexan-2-yl]-2-({5-[(1S)-1-[(5-chloro-2-methylpyridin-3-yl)amino]ethyl]thiophen-2-yl}formamido)-N-cyclopropylpropanamide], with 8.15; and `Cc1ncc(Cl)cc1N[C@@H](Cc1ccc(F)cc1)c1ccc(C(=O)N[C@@H](CC2CCCC2)C(=O)NC2CC2)s1` [Compound 223, (2S)-2-({5-[(1S)-1-[(5-chloro-2-methylpyridin-3-yl)amino]-2-(4-fluorophenyl)ethyl]thiophen-2-yl}formamido)-3-cyclopentyl-N-cyclopropylpropanamide], with 7.96; and `Cc1ncc(Cl)cc1N[C@H](Cc1ccccc1)c1ccc(C(=O)N[C@@H](CC2CCCC2)C(=O)NC23CC(C#N)(C2)C3)s1` [Compound 213, (2S)-2-({5-[(1R)-1-[(5-chloro-2-methylpyridin-3-yl)amino]-2-phenylethyl]thiophen-2-yl}formamido)-N-{3-cyanobicyclo[1.1.1]pentan-1-yl}-3-cyclopentylpropanamide], with 6.78.
As for `Cc1ncc(Cl)cc1N[C@H](C)c1ncc(C(=O)N[C@@H](CC2CCCC2)C(=O)NC2CC2)s1` [Compound 127, (2S)-2-({2-[(1R)-1-[(5-chloro-2-methylpyridin-3-yl)amino]ethyl]-1,3-thiazol-5-yl}formamido)-3-cyclopentyl-N-cyclopropylpropanamide], the pIC50 is 5.81.
`Cc1ncc(Cl)cc1N[C@@H](C)c1ccc(C(=O)N[C@@H](CC2CCCC2)C(=O)NCCF)s1` [Compound 271, (2S)-2-({5-[(1S)-1-[(5-chloro-2-methylpyridin-3-yl)amino]ethyl]thiophen-2-yl}formamido)-3-cyclopentyl-N-(2-fluoroethyl)propanamide]: the pIC50 was 8.00.
In the case of `CC(Nc1cc(Cl)ccc1C(C)(C)O)c1ccc(C(=O)N[C@@H](CC2CCCC2)C(=O)NC2CC2)s1` (stereo partly drawn) [Compound 229, (2S)-2-{[5-(1-{[5-chloro-2-(2-hydroxypropan-2-yl)phenyl]amino}ethyl)thiophen-2-yl]formamido}-3-cyclopentyl-N-cyclopropylpropanamide], the pIC50 is 7.70.
Consider `Cc1ncc(Cl)cc1N[C@H](C)c1ncc(C(=O)N[C@@H](CC2CCCC2)C(=O)NC23CC(C2)C3)s1` [Compound 126, (2S)-N-{bicyclo[1.1.1]pentan-1-yl}-2-({2-[(1R)-1-[(5-chloro-2-methylpyridin-3-yl)amino]ethyl]-1,3-thiazol-5-yl}formamido)-3-cyclopentylpropanamide], for which the pIC50 was 5.99.
The result for `Cc1ncc(Cl)cc1N[C@@H](C)c1ccc(C(=O)N[C@@H](CC2CCCC2)C(=O)Nc2ccc(C#N)cc2)s1` [Compound 85, (2S)-2-({5-[(1S)-1-[(5-chloro-2-methylpyridin-3-yl)amino]ethyl]thiophen-2-yl}formamido)-N-(4-cyanophenyl)-3-cyclopentylpropanamide] reads 8.15.
The result for `Cc1ncc(Cl)cc1N[C@H](C)c1ccc(C(=O)N[C@@H](CC2CCCC2)C(=O)NC2CC2)s1` [Compound 9, 5-[(1R)-1-[(5-chloro-2-methyl-3-pyridyl)amino]ethyl]-N-[(1S)-1-(cyclopentylmethyl)-2-(cyclopropylamino)-2-oxo-ethyl]thiophene-2-carboxamide] reads 6.39; that for `Cc1ncc(Cl)cc1N[C@@H](C)c1ccc(C(=O)N[C@@H](CC2CCCC2)C(=O)Nc2cnn(C3CCN(C)CC3)c2)s1` [Compound 152, (2S)-2-({5-[(1S)-1-[(5-chloro-2-methylpyridin-3-yl)amino]ethyl]thiophen-2-yl}formamido)-3-cyclopentyl-N-[1-(1-methylpiperidin-4-yl)-1H-pyrazol-4-yl]propanamide], 8.22; that for `C[C@H](Nc1cccc(Cl)c1)c1ncc(C(=O)N[C@@H](CC2CCCC2)C(=O)NC2CC2)s1` [Compound 124, (2S)-2-({2-[(1S)-1-[(3-chlorophenyl)amino]ethyl]-1,3-thiazol-5-yl}formamido)-3-cyclopentyl-N-cyclopropylpropanamide], 6.04.
For the molecule `Cc1ncc(Cl)cc1N[C@@H](C)c1ccc(C(=O)N[C@@H](CC2CCCC2)C(N)=O)s1` [Compound 138, (2S)-2-({5-[(1S)-1-[(5-chloro-2-methylpyridin-3-yl)amino]ethyl]thiophen-2-yl}formamido)-3-cyclopentylpropanamide], the pIC50 was 7.72.
Then `Cc1ncc(Cl)cc1N[C@@H](C)c1ccc(C(=O)N[C@H](C(=O)NC2CC2)C(C)(C)C)s1` [Compound 235, (2S)-2-({5-[(1S)-1-[(5-chloro-2-methylpyridin-3-yl)amino]ethyl]thiophen-2-yl}formamido)-N-cyclopropyl-3,3-dimethylbutanamide], with 5.25; and `CC(Nc1cc(Cl)cnc1C(N)=O)c1ccc(C(=O)N[C@@H](CC2CCCC2)C(=O)Nc2cnn(C)c2)s1` (stereo partly drawn) [Compound 173, 5-chloro-3-{[1-(5-{[(1S)-2-cyclopentyl-1-[(1-methyl-1H-pyrazol-4-yl)carbamoyl]ethyl]carbamoyl}thiophen-2-yl)ethyl]amino}pyridine-2-carboxamide], with 8.10.
The result for `Cc1ncc(Cl)cc1NC(CC1CCN(C)CC1)c1ccc(C(=O)N[C@@H](CC2CCCC2)C(=O)NC2CC2)s1` (stereo partly drawn) [Compound 131, (2S)-2-[(5-{1-[(5-chloro-2-methylpyridin-3-yl)amino]-2-(1-methylpiperidin-4-yl)ethyl}thiophen-2-yl)formamido]-3-cyclopentyl-N-cyclopropylpropanamide] reads 7.10; that for `Cc1ncc(Cl)cc1N[C@@H](C)c1ccc(C(=O)N[C@@H](CC2CCCC2)C(=O)Nc2ccc3ncc(F)cc3c2)s1` [Compound 178, (2S)-2-({5-[(1S)-1-[(5-chloro-2-methylpyridin-3-yl)amino]ethyl]thiophen-2-yl}formamido)-3-cyclopentyl-N-(3-fluoroquinolin-6-yl)propanamide], 8.30; that for `Cc1ncc(Cl)cc1N[C@H](c1ccc(C(=O)N[C@@H](CC2CCCC2)C(=O)NC2CC2)s1)C(F)(F)F` [Compound 185, (2S)-2-({5-[(1S)-1-[(5-chloro-2-methylpyridin-3-yl)amino]-2,2,2-trifluoroethyl]thiophen-2-yl}formamido)-3-cyclopentyl-N-cyclopropylpropanamide], 7.21.
The result for `CC(Nc1cc(Cl)cnc1C(N)=O)c1ccc(C(=O)N[C@@H](CC2CC3CC3C2)C(=O)Nc2cnn(C)c2)s1` (stereo partly drawn) [Compound 146, 3-{[1-(5-{[(1S)-2-{bicyclo[3.1.0]hexan-3-yl}-1-[(1-methyl-1H-pyrazol-4-yl)carbamoyl]ethyl]carbamoyl}thiophen-2-yl)ethyl]amino}-5-chloropyridine-2-carboxamide] reads 7.82; that for `Cc1ncc(Cl)cc1N[C@@H](C)c1ccc(C(=O)N[C@@H](CC2CCCC2)C(=O)Nc2cnn(CCN(C)C)c2)s1` [Compound 151, (2S)-2-({5-[(1S)-1-[(5-chloro-2-methylpyridin-3-yl)amino]ethyl]thiophen-2-yl}formamido)-3-cyclopentyl-N-{1-[2-(dimethylamino)ethyl]-1H-pyrazol-4-yl}propanamide], 8.22.
